86 molecules from ChEMBL document CHEMBL3137356, “MMV Box Cryptosporidium parvum screening set” can be followed below.

Molecules are shown by their SMILES.

The assay has as its system Cryptosporidium parvum. As to the kind of experiment: MMV: Cryptosporidium parvum oocysts (Iowa Strain) were prepared for use by treatment with 10 mM HCl (37 degrees C, 10 min) followed by 2 mM sodium taurocholate in phosphate-buffered saline (PBS) with Ca2+ and Mg2+ (16 degrees C, 10 min) in order to stimulate excystation. The high-throughput screen was carried out by inoculating >90% confluent human ileocecal adenocarcinoma (HCT-8) cells (ATCC) with ~5.5 x 10^3 primed oocysts per well. Experimental compounds or DMSO (vehicle) were added three hours after infection, and cells were incubated for 48 hours. It counts as functional.

As to `Cc1sc(NC(=O)c2ccco2)c(C(c2cccnc2)N2CCC(Cc3ccccc3)CC2)c1C` (stereo unspecified), the Inhibition was -7.724%.

For the molecule `COc1ccc(CN2CCN(Cc3ccccc3)CC2)c(O)c1`, the Inhibition was -9.592%.

Regarding `COc1cccc(NC(=O)Cn2c(C)c(C#N)c3ccccc32)c1`, the Inhibition was determined as 14.16%.

For `CCCC(c1nnnn1C1CCCCC1)N1CCN(C(=O)c2ccco2)CC1.Cl` (stereo unspecified), the Inhibition is on record as -55.52%.

On to `Cc1cccc(-n2ncc3c(O)nc(-n4nc(C)cc4NC(=O)c4cc5ccccc5o4)nc32)c1`, for which the Inhibition stood at 82.48%.

Consider `CCOC(=O)c1c(C)n(-c2ccccc2)c2ccc(OC(=O)c3cc(OC)c(OC)c(OC)c3)cc12`, for which the Inhibition was found to be 4.591%.

For the molecule `COc1ccc(-c2cc(=O)oc3c4c(ccc23)OCN(Cc2ccc(F)cc2)C4)cc1`, the Inhibition is -0.4054%.

For the molecule `O=C(Nc1ccc(Cl)c(Cl)c1)Nc1ccc(Cl)c(Cl)c1`, the Inhibition amounted to 79.74%.

`COc1ccc(-c2nonc2NC(=O)c2cccc(C)c2)cc1OC`: the Inhibition amounted to 4.698%.

Regarding `CC(=O)c1ccc(NC(=O)CSc2nc(-c3ccccc3Cl)ns2)cc1`, the Inhibition was 23.33%.

Turning to `Cc1ccc(C)c(Cn2c(N3CCC(C(=O)NCc4cccs4)CC3)nc3ccccc32)c1`, the Inhibition is listed as -14.3%.

For `COc1ccc2nc(N)nc(C)c2c1`, the Inhibition amounted to 15.73%.

Regarding `COc1ccc(-c2nc(N3CCN(C(=O)C4CCCCC4)CC3)c3c4c(sc3n2)CCCC4)cc1`, the Inhibition is on record as -3.496%.

As to `CN1CCN(c2ccc(Nc3c4ccccc4nc4ccccc34)cc2)CC1`, the Inhibition was found to be 7.066%.

With `COc1cc(OC)c(N(C)C(=O)c2cc3c(s2)-c2ccccc2S(=O)(=O)C3)cc1Cl`, the Inhibition is -25.68%.

On to `CN1c2ccccc2N(C)C1c1ccc2c(c1)OCO2`, for which the Inhibition is -58.41%.

Take `COc1ccc(-c2cc3c(SCC(=O)Nc4cc(C(F)(F)F)ccc4Cl)nccn3n2)cc1`: the Inhibition is -78.4%.

As to `Nc1ccc(-c2nc3cc(Oc4ccc(Oc5ccc6[nH]c(-c7ccc(N)cc7)nc6c5)cc4)ccc3[nH]2)cc1`, the Inhibition is on record as -48.18%.

Consider `COc1ccc(C(=O)NC(c2ccccc2Cl)c2cc(Cl)c3cccnc3c2O)cc1` (stereo unspecified), for which the Inhibition turned out to be 32.62%.

As for `Cc1ccc(S(=O)(=O)c2c(COC(=O)c3cccc(C)c3)c(-c3ccccc3)nn2C)cc1`, the Inhibition is reported as -24.68%.

Consider `CCN(Cc1ccccc1)C1CCN(Cc2cc(Br)ccc2O)CC1.O=C(O)C(=O)O`, for which the Inhibition is -6.655%.

As to `COc1ccc(C(O)(CCC(C)C)C(CN2CCOCC2)c2ccc(Cl)cc2)cc1.Cl` (stereo unspecified), the Inhibition is -51.44%.

For `COc1ccc(CNC(=O)c2cc3c(=O)n4ccccc4nc3n(CCc3ccccc3)c2=N)cc1`, the Inhibition turned out to be 20.87%.

As to `COc1ccc(-c2nc(NC(=O)CS(=O)(=O)c3ccc(F)cc3)sc2C)cc1`, the Inhibition is recorded as -22.95%.

Turning to `O=C(c1ccccc1F)N(Cc1ccc(Cl)cc1)c1ccccn1`, the Inhibition was -0.1452%.

For the molecule `O=C(CCc1ccccc1)c1ccccc1OCC(O)CN1CCCCC1` (stereo unspecified), the Inhibition is on record as -4.075%.

As to `CC(NCc1ccccc1)c1cc(Cl)ccc1O` (stereo unspecified), the Inhibition was -51.25%.

As for `Cn1c(C(=O)c2cccc3ccccc23)nc2ccccc21`, the Inhibition is given as -17.7%.

Regarding `COc1cc2c(cc1OC)C1=NNC(=O)C1=NC(C)(C)C2`, the Inhibition is -25.43%.

On to `O=c1nc(C=Cc2ccc(Br)cc2)oc2ccccc12`, for which the Inhibition came out at 36.68%.

Take `COc1ccc(C2NCCc3c2[nH]c2ccccc32)cc1CN1CCN(c2ccc(F)cc2)CC1.Cl` (stereo unspecified): the Inhibition is -2.167%.

Consider `CCOc1ccc(N2C(N)=NC(N)=NC2(C)C)cc1.Cl`, for which the Inhibition is reported as -26.74%.

For the molecule `O=C(NC1CCN(Cc2ccccc2)CC1)c1cc(C(=O)NC2CCN(Cc3ccccc3)CC2)cc(C(=O)NC2CCN(Cc3ccccc3)CC2)c1`, the Inhibition came out at 0.9409%.

Regarding `O=C(Nc1ccc(CN2CCOCC2)cc1)c1ccc(-c2cc(Cl)ccc2Cl)o1`, the Inhibition worked out at 9.568%.

Regarding `COc1ccc(Br)cc1C1Nc2ccc3ccccc3c2C2=C1C(=O)CC(c1ccccc1)C2` (stereo unspecified), the Inhibition is -67.54%.

Take `Cc1ccc(Cl)cc1N1CCN(CCCNC(=O)C2CCN(c3nc4ccccc4[nH]3)CC2)CC1`: the Inhibition is -53.53%.

`O=C(Nc1ccc(-c2nc3cc4ccccc4cc3[nH]2)cc1)c1cccc(Br)c1`: the Inhibition is listed as -10.01%.

As for `C[n+]1c2ccccc2nc2ccc(NCCO)cc21`, the Inhibition is given as -27.1%.

For `Cc1ccc(NC(=O)Nc2cccc(Cl)c2)cc1F`, the Inhibition is -0.4391%.

Take `CCOC(=O)C1=CN(C)C=C(C(=O)OCC)C1c1cc(Br)c(OCC)c(OC)c1`: the Inhibition was -2.299%.

On to `Cc1cc(Nc2cccc(F)c2)nc(NCc2ccccc2)n1`, for which the Inhibition is given as -34.09%.

Turning to `O=C(Nc1ccc(N2CCCCC2)c(Cl)c1)c1ccc(Br)o1`, the Inhibition is on record as -27.15%.

As to `Cc1ccc(N2C(=O)C3C(C2=O)C2(c4ccccc4)C(=O)C3(c3ccccc3)C(c3ccccc3)=C2c2ccccc2)cc1` (stereo unspecified), the Inhibition is listed as -46.86%.

For `CCOc1ccc2c(c1)CN(Cc1ccc(Cl)cc1)CO2`, the Inhibition was -64.93%.

Take `OCCNc1nc(Nc2ccc(Cl)c(Cl)c2)nc2ccccc12`: the Inhibition amounted to 12.96%.

Turning to `c1ccc2cc3c(Nc4ccc(N5CCOCC5)cc4)ccnc3cc2c1`, the Inhibition came out at 17%.

As to `COc1cccc(C=Cc2nc(=O)c3ccccc3o2)c1OC`, the Inhibition is recorded as 44.65%.

Consider `CC(C)(C)c1ccc(C(=O)Nc2c3c(nn2-c2cccc(Cl)c2)CSC3)cc1`, for which the Inhibition was found to be 7.325%.

With `Cn1c(=O)c2cc(C(=O)NCCCN3CCCCCC3)sc2c2ccccc21`, the Inhibition is recorded as -13.68%.

With `CCN(CC)c1cc(C)c2cc(NC(=O)c3cccc(OC)c3)ccc2n1`, the Inhibition is -27.53%.

Turning to `O=C(Nc1ccccc1O)c1ccc(-c2ccc(Cl)cc2Cl)o1`, the Inhibition is recorded as -8.773%.

`CCOc1ccccc1NC(=O)CN1CCN(C(=O)c2ccco2)CC1`: the Inhibition is -43.69%.

Consider `CC1CCN(Cc2ccc(NC(=O)c3cc4ccc5cccnc5c4[nH]3)cc2)CC1`, for which the Inhibition is recorded as -17.38%.

Take `CCC(=O)Nc1nnc(Cc2ccc(OC)c(OC)c2)s1`: the Inhibition came out at 5.406%.

As to `Brc1ccc(Nc2nc3ccccc3nc2Nc2ccc(Br)cc2)cc1`, the Inhibition is given as -31.05%.

On to `O=C(NC(c1ccccc1)c1ccc2cccnc2c1O)c1ccccc1` (stereo unspecified), for which the Inhibition is listed as 59.29%.

`O=C(Nc1ccc(Cl)cc1)N1CCN(c2ccc3nncn3n2)CC1`: the Inhibition is reported as 64.92%.

With `COc1cc(CNCCc2ccc(Cl)cc2)cc(OC)c1O`, the Inhibition was found to be 5.38%.

As for `Oc1ccc(Cl)cc1CNc1nc2ccccc2[nH]1`, the Inhibition is -2.947%.

Regarding `COc1ccc(C(=O)Nc2nonc2-c2ccc(OC)c(OC)c2)cc1Cl`, the Inhibition stood at 4.722%.

On to `Nc1ccn([C@@H]2O[C@H](CO)[C@@H](O)[C@H]2O)c(=O)n1` [CYTIDINE], for which the Inhibition is recorded as 73.84%.

Turning to `FC(F)(F)c1cccc(CNC2CCN(CCc3ccccc3)CC2)c1`, the Inhibition is -52.87%.

`Cc1ccc(F)cc1NC(=O)c1cc(Cl)ccc1Nc1ccccc1`: the Inhibition was -36.44%.

With `COc1ccccc1NC1=C(N2CCCCC2)C(=O)c2ccccc2C1=O`, the Inhibition was -35.82%.

Take `COc1ccc(C=C2SC(Nc3ccc(F)cc3)=NC2=O)c(OC)c1`: the Inhibition is on record as 36.03%.

For `CCCCCCc1cc(O)c2c3c(c(=O)oc2c1)CCC(C)C3` (stereo unspecified), the Inhibition is given as -17.49%.

Regarding `COc1ccc2sc(N(Cc3cccnc3)C(=O)c3ccc(C#N)cc3)nc2c1`, the Inhibition is 39.49%.

On to `CN(C)c1ccc(C(O)(c2ccc(N(C)C)cc2)c2ccc(N(C)C)cc2)cc1` [METHYLROSANILINE], for which the Inhibition was determined as 77.77%.

Take `Cc1cc(C)c2nc(N3CCC(C(=O)NCCCN4CCC(N5CCCCC5)CC4)CC3)sc2c1`: the Inhibition is -56.98%.

Consider `Cc1ccc(N2C3c4ccccc4N(S(=O)(=O)c4ccc(C)cc4)C2c2ccccc2N3S(=O)(=O)c2ccc(C)cc2)cc1`, for which the Inhibition was -51.15%.

For the molecule `Cl.OC(CNCc1ccccc1)Cn1c2ccccc2c2ccccc21` (stereo unspecified), the Inhibition is -37.25%.

Consider `COc1cc(OC)cc(N2C(=O)N(Cc3ccc(C(C)(C)C)cc3)c3ccccc3S2(=O)=O)c1`, for which the Inhibition is recorded as -14.44%.

On to `Cc1c(C)n(Cc2ccc(F)cc2)c2ccc(C(=O)NCc3ccco3)cc12`, for which the Inhibition was -17.08%.

As for `C=CC12CCN(CC1)C(C(O)c1ccnc3ccc(OC)cc13)C2.Cl` (stereo unspecified), the Inhibition was 1.246%.

For the molecule `O=C(NCc1ccco1)C1CCN(S(=O)(=O)c2ccc(Cl)cc2)CC1`, the Inhibition was -53.31%.

In the case of `CCCCNCC(O)(c1ccc(Cl)cc1)c1ccc(Cl)cc1`, the Inhibition is on record as 9.548%.

As for `COc1ccc(NC(=O)C2c3ccccc3C(=O)N(CC(C)C)C2c2cccs2)cc1` (stereo unspecified), the Inhibition is on record as 0.02548%.

With `Cc1ccc(C2CC(C(F)(F)F)n3nc(C(=O)N4CCN(C(c5ccccc5)c5ccccc5)CC4)cc3N2)cc1` (stereo unspecified), the Inhibition is reported as -21.96%.

As for `CCCCCC(=O)N1c2ccccc2N=C2CC(c3ccc(OC)c(OC)c3)CC(O)=C2C1c1ccc(C(F)(F)F)cc1` (stereo unspecified), the Inhibition was -9.957%.

Consider `CCOC(=O)c1cnc2ccc(Cl)cc2c1NCCCN(C)C`, for which the Inhibition worked out at 28.81%.

In the case of `Cc1sc2ncnc(Sc3nc4ccccc4[nH]3)c2c1C`, the Inhibition stood at 20.44%.

Consider `CC(C)c1ccc(CNCC(O)c2ccccc2)cc1.Cl` (stereo unspecified), for which the Inhibition stood at 13.18%.

As for `OC(CNC1CCCCC1)Cn1c2ccc(I)cc2c2cc(I)ccc21` (stereo unspecified), the Inhibition was 25.2%.

Regarding `CN(C)c1ccc(N=Cc2ccc(N3CCOCC3)cc2)cc1`, the Inhibition is -8.003%.

`CCOc1cc(Br)c(C(C)NC(=O)c2cccc(OC)c2)cc1OCC` (stereo unspecified): the Inhibition was -25.9%.

With `CC(C)(C)c1ccc(C2CC3=Nc4ccccc4N(C(=O)c4ccccc4Cl)C(c4ccc(F)cc4)C3=C(O)C2)cc1` (stereo unspecified), the Inhibition was determined as 20.41%.

Usually Inhibition stands for the drop in the measured response relative to a control, in per cent.
